# Experimental data as given in paper PMC6273807, “Identification of Selective ERRγ Inverse Agonists” (Molecules, 2016).
# pIC50: −log10 of the molar value.
# Key:
# ERRγ [1] = target: T1, ERRγ (Homo sapiens, UniProt P62508); experiment: TR-FRET (LanthaScreen) ERRγ binding assay; settings: Table 1 screening, 2-fold serial dilution from 10 μM; for pIC50: read-out: ERRγ, IC50 (binding inhibition of ERRγ binding activity)
# T1 construct: purchased Life Technologies
# T1 sequence (P62508 233-457 limits assumed): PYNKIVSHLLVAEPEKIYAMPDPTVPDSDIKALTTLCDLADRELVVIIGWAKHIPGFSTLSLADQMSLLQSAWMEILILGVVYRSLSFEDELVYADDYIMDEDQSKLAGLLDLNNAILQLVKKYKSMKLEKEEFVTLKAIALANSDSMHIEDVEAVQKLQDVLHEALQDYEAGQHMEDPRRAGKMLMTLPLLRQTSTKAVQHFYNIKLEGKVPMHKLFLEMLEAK
# Protocol: Initials creening was conducted using a well established TR-FRET based ERRγ binding assay as described in the Experimental section at a concentration of 10 μM. Serial dilutions of the synthesized compounds were used to calculate IC50 values for the binding affinity with ERRγ.
# ERRγ binding assay was conducted with Lantascreen assay system (Life Technologies, Grand Island, NY, USA), which was based on TR-FRET, followed by manufacturer’s instruction. Briefly, compounds were serially diluted with 2-fold staring from 10 μM and 10 μL of each diluent was added in 384 well plate. Then, GST-conjugated ERRγ LBD (ligand-binding domain) was added to be 5 nM. Next, the mixture of fluorescien-conjugated coactivator PGC1a (final concentration to be 500 nM) and Tb-a-GST antibody (final concentration to be 5 nM) was added. The reaction mixture was incubated at rt in dark state for 1 h.
# ERRγ [2] = target: T2, ERRγ (Homo sapiens, UniProt P62508); experiment: ERRγ functional assay: GAL4-ERRγ luciferase reporter gene in AD293 cells; assay type: cell-based; settings: for inhibition at 10 µM: AD293, 24 h, screening concentration of 10 μM, read-out: transcriptional repression; for ERRγ functional activity in the cellular system (in words): 10 μM, reporter-gene assay, compared with control ligand 4
# T2 sequence (P62508 233-458 limits assumed): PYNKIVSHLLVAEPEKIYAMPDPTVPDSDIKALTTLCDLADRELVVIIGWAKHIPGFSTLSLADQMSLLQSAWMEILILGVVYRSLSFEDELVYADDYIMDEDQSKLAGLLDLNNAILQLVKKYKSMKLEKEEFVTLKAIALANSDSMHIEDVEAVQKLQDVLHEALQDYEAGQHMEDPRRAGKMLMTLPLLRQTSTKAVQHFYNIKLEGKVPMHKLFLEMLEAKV
# Protocol: Along with the binding assay campaign, functional activity was determined in order to validate the utility of the binding affinity in a cellular context as described in the Experimental.
# Figure 2 Cell based reporter-gene assay screening of 16 analogs ERRγ binding activity in cell was measured by luciferase activity using co-transfection system with GAL4-ERRγ and pFR-luciferase reporter gene.
# AD293 cells were cultured in Dulbecco’ modified Eagle medium (DMEM) High glucose supplemented with 0.5% FBS (Hyclone, Logan, UT, USA). After 24 h, culture media was changed with DMEM High glucose containing 10% FBS. DNA constructs, which includes pCMX-Gal4-ERRγ, pFR-luciferase reporter plasmid, pCMV-β-gal were transiently transfected into AD293 cells using TransIT-LT1 transfection reagent (Mirus, Madison, WI, USA) for 24 h. Then, transfected cells were treated with compounds for 24 h and harvested for detection of luciferase activity and β-gal activity. All cells were incubated at 37 °C under 5% CO2 in a humidified incubator [5].
# CYP2D6 = CYP2D6 (Homo sapiens, UniProt P10635); experiment: CYP inhibition assay, cocktail, human liver microsomes (dextromethorphan O-demethylase); assay type: in vitro ADME; settings: 10 μM, activity in presence of inhibitor as % of control
# CYP1A2 = target: T3, CYP1A2 (Homo sapiens, UniProt P05177); experiment: CYP inhibition assay, cocktail, human liver microsomes (phenacetin O-deethylase); assay type: in vitro ADME; settings: 10 μM, activity in presence of inhibitor as % of control
# T3 sequence (P05177 1-516): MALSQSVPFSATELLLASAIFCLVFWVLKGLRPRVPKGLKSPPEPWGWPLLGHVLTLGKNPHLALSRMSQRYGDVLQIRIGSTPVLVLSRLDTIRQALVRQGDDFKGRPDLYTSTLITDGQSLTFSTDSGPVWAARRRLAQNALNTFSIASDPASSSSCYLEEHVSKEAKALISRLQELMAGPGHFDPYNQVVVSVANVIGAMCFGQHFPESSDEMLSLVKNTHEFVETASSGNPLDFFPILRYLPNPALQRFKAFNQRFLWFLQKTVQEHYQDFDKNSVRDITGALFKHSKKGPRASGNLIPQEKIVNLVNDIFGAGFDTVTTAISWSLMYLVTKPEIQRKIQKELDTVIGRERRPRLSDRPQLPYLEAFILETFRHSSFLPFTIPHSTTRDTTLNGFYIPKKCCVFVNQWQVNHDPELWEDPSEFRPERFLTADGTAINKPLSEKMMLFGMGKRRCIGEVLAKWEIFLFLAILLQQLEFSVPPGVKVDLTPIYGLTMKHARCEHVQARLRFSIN
# [3] = Metabolic stability assay in liver microsomes (mouse); assay type: in vitro ADME; settings: 1 μM, 30 min, 37 °C, NADPH
# Protocol: (§1) The metabolic stability assay was performed by incubation of human and selected animal liver microsomes (most often dog, rat and mouse), at 37 °C with a test compound at a final concentration of 1 μM, in the presence of 0.5 mg/mL microsomal protein and NADPH regeneration system, in a total volume of 100 μL of 100 mM phosphate buffer, pH 7.4. The incubation was started by the addition of NADPH regeneration system and terminated with adding 40 μL of ice-cold acetonitrile at 0 and 30 min. […] Incubations terminated prior to addition of NADPH regeneration system (time point 0 min) were used as standards, defined as 100%. Percent of the parent compound remaining was calculated by comparing peak areas.
# CYP2C9 = CYP2C9 (Homo sapiens, UniProt P11712); experiment: CYP inhibition assay, cocktail, human liver microsomes (tolbutamide 4-hydroxylase); assay type: in vitro ADME; settings: 10 μM, human liver microsomes; activity in presence of inhibitor as % of control
# [4] = Metabolic stability assay in liver microsomes (dog); assay type: in vitro ADME; settings: 1 μM, 30 min, 37 °C, NADPH
# Protocol: as §1
# CYP3A = experiment: CYP inhibition assay, cocktail, human liver microsomes (midazolam 1'-hydroxylase); assay type: in vitro ADME; settings: 10 μM, activity in presence of inhibitor as % of control
# CYP2C19 = CYP2C19 (Homo sapiens, UniProt P33261); experiment: CYP inhibition assay, cocktail, human liver microsomes (S-mephenytoin 4-hydroxylase); assay type: in vitro ADME; settings: 10 μM, activity in presence of inhibitor as % of control
# [5] = Metabolic stability assay in liver microsomes (rat); assay type: in vitro ADME; settings: 1 μM, 30 min, 37 °C, NADPH
# Protocol: as §1
# [6] = Metabolic stability assay in liver microsomes (human); assay type: in vitro ADME; settings: 1 μM, 30 min, 37 °C, NADPH
# Protocol: as §1
# CYP2C9, sequence (P11712 whole entry): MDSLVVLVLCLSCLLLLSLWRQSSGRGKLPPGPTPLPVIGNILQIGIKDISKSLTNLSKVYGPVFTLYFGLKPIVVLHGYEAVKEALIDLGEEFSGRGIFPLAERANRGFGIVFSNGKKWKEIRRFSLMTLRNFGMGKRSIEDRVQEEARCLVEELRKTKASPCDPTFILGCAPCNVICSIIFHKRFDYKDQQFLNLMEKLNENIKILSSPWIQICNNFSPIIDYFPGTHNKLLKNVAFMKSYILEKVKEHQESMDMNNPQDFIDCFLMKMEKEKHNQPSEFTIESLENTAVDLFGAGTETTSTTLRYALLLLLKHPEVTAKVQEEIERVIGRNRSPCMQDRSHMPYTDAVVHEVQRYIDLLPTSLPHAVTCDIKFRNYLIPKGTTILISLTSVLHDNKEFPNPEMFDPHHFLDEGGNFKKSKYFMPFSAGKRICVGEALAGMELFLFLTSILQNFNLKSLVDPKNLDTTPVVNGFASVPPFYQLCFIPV
# CYP2D6, sequence (P10635 whole entry): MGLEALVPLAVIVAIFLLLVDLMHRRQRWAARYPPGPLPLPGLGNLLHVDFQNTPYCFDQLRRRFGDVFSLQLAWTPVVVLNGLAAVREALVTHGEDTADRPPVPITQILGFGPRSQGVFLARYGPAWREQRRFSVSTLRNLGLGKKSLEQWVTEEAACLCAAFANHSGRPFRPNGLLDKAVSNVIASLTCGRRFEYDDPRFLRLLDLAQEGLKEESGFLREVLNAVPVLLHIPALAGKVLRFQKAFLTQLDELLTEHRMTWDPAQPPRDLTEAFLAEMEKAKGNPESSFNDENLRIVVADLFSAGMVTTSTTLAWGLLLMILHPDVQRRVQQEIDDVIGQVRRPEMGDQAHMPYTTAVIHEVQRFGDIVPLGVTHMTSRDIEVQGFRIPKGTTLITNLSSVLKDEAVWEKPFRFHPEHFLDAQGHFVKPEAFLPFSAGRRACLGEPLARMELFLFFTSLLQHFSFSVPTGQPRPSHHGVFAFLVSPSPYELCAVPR
# CYP2C19, sequence (P33261 whole entry): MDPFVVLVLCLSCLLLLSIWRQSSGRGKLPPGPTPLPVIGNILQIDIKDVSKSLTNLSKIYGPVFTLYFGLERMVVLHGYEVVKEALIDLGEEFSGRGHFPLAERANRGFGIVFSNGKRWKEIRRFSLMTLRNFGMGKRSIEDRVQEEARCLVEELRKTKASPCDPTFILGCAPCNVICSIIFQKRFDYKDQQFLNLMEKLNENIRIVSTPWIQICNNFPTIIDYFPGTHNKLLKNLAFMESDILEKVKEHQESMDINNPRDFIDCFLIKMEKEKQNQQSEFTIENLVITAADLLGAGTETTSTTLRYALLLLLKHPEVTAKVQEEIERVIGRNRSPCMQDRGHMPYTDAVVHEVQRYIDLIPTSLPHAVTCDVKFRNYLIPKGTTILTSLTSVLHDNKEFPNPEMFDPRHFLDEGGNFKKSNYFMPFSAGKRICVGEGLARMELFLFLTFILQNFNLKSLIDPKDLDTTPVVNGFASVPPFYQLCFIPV
Structure (SMILES),pIC50 (ERRγ [1]),inhibition at 10 µM (ERRγ [2]) [%],further results
"CN(C)CCOc1ccc(/C(=C(/CCCO)c2ccc3nccn3c2)c2ccc(O)cc2)cc1 [Compound 15i, (Z)-4-(1-(4-(2-(Dimethylamino)ethoxy)phenyl)-5-hydroxy-2-(imidazo[1,2-a]pyridin-6-yl)pent-1-en-1-yl)phenol]",< 5.00,~0,
"COc1ccc(/C(CCCO)=C(/c2ccc(O)cc2)c2ccc(OCCN(C)C)cc2)cn1 [Compound 15c, (Z)-4-(1-(4-(2-(Dimethylamino)ethoxy)phenyl)-5-hydroxy-2-(6-methoxypyridin-3-yl)pent-1-en-1-yl)phenol]",< 5.00,~50,
"CN(C)CCOc1ccc(/C(=C(/CCCO)c2cccnc2)c2ccc(O)cc2)cc1 [Compound 15d, (Z)-4-(1-(4-(2-(Dimethylamino)ethoxy)phenyl)-5-hydroxy-2-(pyridin-3-yl)pent-1-en-1-yl)phenol]",5.51,,
"CN(C)CCOc1ccc(/C(=C(/CCCO)c2ccccc2)c2ccc(O)cc2)cc1 [Compound 4, GSK5182, reference compound]",,,"CYP Inhibition (% of Control), 2D6 (CYP2D6): 82 % of Control; CYP Inhibition (% of Control), 1A2 (CYP1A2): 84 % of Control; MS (%), Mouse (percent of parent compound remaining) [3]: less than 10%; CYP Inhibition (% of Control), 2C9 (CYP2C9): 73 % of Control; MS (%), Dog (percent of parent compound remaining) [4]: less than 10%; CYP Inhibition (% of Control), 3A4 (CYP3A): 83 % of Control; CYP Inhibition (% of Control), 2C19 (CYP2C19): 78 % of Control; MS (%), Rat (percent of parent compound remaining) [5]: 26%; MS (%), Human (percent of parent compound remaining) [6]: 43%"
"CN(C)CCOc1ccc(/C(=C(/CCCO)c2ccc(O)cc2)c2ccc(O)cc2)cc1 [Compound 15b, (Z)-4,4′-(1-(4-(2-(Dimethylamino)ethoxy)phenyl)-5-hydroxypent-1-ene-1,2-diyl)diphenol]",5.63,,
"CN(C)CCOc1ccc(/C(=C(/CCCO)c2ccnc(F)c2)c2ccc(O)cc2)cc1 [Compound 15e, (Z)-4-(1-(4-(2-(Dimethylamino)ethoxy)phenyl)-2-(2-fluoropyridin-4-yl)-5-hydroxypent-1-en-1-yl)phenol]",5.27,,ERRγ functional activity in the cellular system (in words) (ERRγ [2]): comparable regression of the ERRγ transcriptional activity
"CN(C)CCOc1ccc(/C(=C/CCCO)c2ccc(O)cc2)cc1 [Compound 15a, (E)-4-(1-(4-(2-(Dimethylamino)ethoxy)phenyl)-5-hydroxypent-1-en-1-yl)phenol]",< 5.00,~0,
"COCCC/C(=C(\c1ccc(O)cc1)c1ccc(OCCN(C)C)cc1)c1cnn(C)c1 [Compound 13c, (Z)-4-(1-(4-(2-(Dimethylamino)ethoxy)phenyl)-5-methoxy-2-(1-methyl-1H-pyrazol-4-yl)pent-1-en-1-yl)-phenol]",< 5.00,~50,
"COCCC/C(=C(\c1ccc(O)cc1)c1ccc(OCCN(C)C)cc1)c1cccnc1 [Compound 13a, (Z)-4-(1-(4-(2-(Dimethylamino)ethoxy)phenyl)-5-methoxy-2-(pyridin-3-yl)pent-1-en-1-yl)phenol]",6.00,,ERRγ functional activity in the cellular system (in words) (ERRγ [2]): comparable regression of the ERRγ transcriptional activity
"CN(C)CCOc1ccc(/C(=C(/CCCO)c2ccc(N3CCOCC3)nc2)c2ccc(O)cc2)cc1 [Compound 15f, (Z)-4-(1-(4-(2-(Dimethylamino)ethoxy)phenyl)-5-hydroxy-2-(6-morpholinopyridin-3-yl)pent-1-en-1-yl)phenol]",< 5.00,,ERRγ functional activity in the cellular system (in words) (ERRγ [2]): partial agonistic activity
"CN(C)CCOc1ccc(/C(=C(/CCCO)c2ccc3ccncc3c2)c2ccc(O)cc2)cc1 [Compound 15j, (Z)-4-(1-(4-(2-(Dimethylamino)ethoxy)phenyl)-5-hydroxy-2-(isoquinolin-7-yl)pent-1-en-1-yl)phenol]",5.33,,
"COCCC/C(=C(\c1ccc(O)cc1)c1ccc(OCCN(C)C)cc1)c1ccncc1 [Compound 13b, (Z)-4-(1-(4-(2-(Dimethylamino)ethoxy)phenyl)-5-methoxy-2-(pyridin-4-yl)pent-1-en-1-yl)phenol]",< 5.00,~50,
"COCCC/C(=C(\c1ccc(O)cc1)c1ccc(OCCN(C)C)cc1)c1ccc(C(C)C)nc1 [Compound 17, (Z)-4-(1-(4-(2-(Dimethylamino)ethoxy)phenyl)-2-(6-isopropylpyridin-3-yl)-5-methoxypent-1-en-1-yl)phenol]",< 5.00,~50,
COCCC/C(=C(\c1ccc(O)cc1)c1ccc(OCCN(C)C)c(C(F)(F)F)c1)c1cccnc1 [Compound 16],< 5.00,~0,"ERRγ, IC50 (binding inhibition of ERRγ binding activity) (ERRγ [1]): no affinity"
